The values below come from ChEMBL document CHEMBL1201862, “PubChem BioAssay data set” (2004).

Assay in all cases: NCI tumour cell line growth inhibition, 48 h
The test system of test [1] is M14.
The test system of test [2] is M19-MEL.
In test [3] the test system is CAKI-1.
Test [4] has as its system ACHN.
For test [5], the system named is UACC-62.
Test [6] deals with Malme-3M.
In test [7] the test system is CCRF-CEM.
Test [8] has as its system HCT-15.
The test system of test [9] is OVCAR-4.
Test [10] deals with KM12.
In test [11] the test system is DMS-114.
The test system of test [12] is RXF 393.
In test [13] the test system is LXFL 529.
In test [14] the test system is KM-20L2.
Test [15] has as its system RPMI-8226.
Test [16] relates to T47D.
The subject of test [17] is PC-3.
Test [18] relates to MDA-N.
In test [19] the test system is MCF7.
In test [20] the test system is BT-549.

Molecules are shown by their SMILES.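 Grown in 96-well plates, cells were treated for 48 hours with each compound at five concentrations. Insufficient inhibition: endpoint recorded as highest concentration tested. Abbreviation: GI50, concentration required for 50% inhibition of growth.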 Activity calls are given as the source filed them. Cut-off read from the data, not from the text of the source: active = GI50 up to about 1.1 µM and inactive = higher. Where only a bound is given, the exact number is not on record here.

As to `CCCCN(CCCC)C(=O)C(=O)C(C#N)c1ccc(C)cc1` (stereo not given), the GI50 in test [1], in test [2], in [3], in [4], in test [5] and in [6] was > 100 µM (inactive) in each case. In addition, the GI50 in test [7] was > 100 µM (inactive); in test [8] it was > 100 µM; in [9], > 100 µM (inactive); in test [10], > 100 µM (inactive); in [11] it was > 100 µM (inactive); in test [12] it was > 100 µM (inactive). In addition, the GI50 in test [13], in [14] and in test [15] was > 100 µM (inactive) in each case.

Regarding `CCC1=CCN(c2cc(C)ccn2)OC1c1ccc(OC)cc1` (stereo not given), the GI50 in test [1] is 32.5 µM (inactive); in test [2] it was 31.5 µM (inactive); in [3], 34.4 µM (inactive); in [4], 33.5 µM (inactive); in [5], 29.4 µM (inactive); in [6], 27 µM (inactive). The GI50 was 23.7 µM (inactive) in test [7]; 27.3 µM in [8]; 34.8 µM (inactive) in test [9]; 31.2 µM (inactive) in test [10]; 27.9 µM (inactive) in [11]; 22.3 µM (inactive) in [12]. For the same compound, the figures for the GI50 in [13], in test [14] and in test [15] were 28.6 µM (inactive), 30.3 µM (inactive) and 22.6 µM (inactive), respectively.

As to `COc1cc(/C=C/C(=O)Oc2ccc(NC(C)=O)cc2)ccc1C(=O)OCc1ccccc1`, the GI50 is > 100 µM (inactive) in test [16]; > 100 µM (inactive) in test [17]; > 100 µM (inactive) in test [1]; > 100 µM (inactive) in [2]; > 93.3 µM (inactive) in [3]; > 73.8 µM (inactive) in test [4]. In addition, the GI50 in test [5] is 69.2 µM (inactive); in test [6] it was > 93.5 µM (inactive); in [18] it was > 100 µM (inactive); in [7], 64.3 µM (inactive); in test [8], > 100 µM; in test [9], > 96.4 µM (inactive). Besides, the GI50 was > 100 µM (inactive) in test [10]; > 90.8 µM (inactive) in test [11]; 28.8 µM (inactive) in test [12]; > 100 µM (inactive) in test [13]; > 86.5 µM (inactive) in [19]; > 100 µM (inactive) in test [14]. Besides, the GI50 in test [20] and in test [15] was > 100 µM (inactive) each time.

In the case of `CC(C)(C)C1=NO[C@H]2[C@@H](NC(=O)c3ccccc3)CC[C@@H]12`, the GI50 in [1], in test [2], in [3], in test [4], in test [5] and in [6] was > 100 µM (inactive) throughout. The GI50 was > 100 µM (inactive) in [7]; > 100 µM in [8]; > 100 µM (inactive) in test [9]; > 100 µM (inactive) in [10]; > 100 µM (inactive) in [11]; > 100 µM (inactive) in [12]. For the same compound, the GI50 in test [13], in test [14] and in test [15] was > 100 µM (inactive) each time.
